# Results taken from ChEMBL document CHEMBL1201862, “PubChem BioAssay data set” (2004).
# Calls of active or inactive are those of the source.
# Key:
# Cytochrome P450 3A4 = Cytochrome P450 3A4 (Homo sapiens, UniProt P08684);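 also: CYP3A4 tested as one member of a cytochrome P450 panel screen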
# [1] = molecular target: Voltage-gated inwardly rectifying potassium channel KCNH2 (Homo sapiens, UniProt Q12809); conditions: Potency;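 also: confirmatory quantitative high-throughput screen measuring inhibition of hERG channel activity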
# Voltage-gated inwardly rectifying potassium channel KCNH2, sequence (Q12809 whole entry): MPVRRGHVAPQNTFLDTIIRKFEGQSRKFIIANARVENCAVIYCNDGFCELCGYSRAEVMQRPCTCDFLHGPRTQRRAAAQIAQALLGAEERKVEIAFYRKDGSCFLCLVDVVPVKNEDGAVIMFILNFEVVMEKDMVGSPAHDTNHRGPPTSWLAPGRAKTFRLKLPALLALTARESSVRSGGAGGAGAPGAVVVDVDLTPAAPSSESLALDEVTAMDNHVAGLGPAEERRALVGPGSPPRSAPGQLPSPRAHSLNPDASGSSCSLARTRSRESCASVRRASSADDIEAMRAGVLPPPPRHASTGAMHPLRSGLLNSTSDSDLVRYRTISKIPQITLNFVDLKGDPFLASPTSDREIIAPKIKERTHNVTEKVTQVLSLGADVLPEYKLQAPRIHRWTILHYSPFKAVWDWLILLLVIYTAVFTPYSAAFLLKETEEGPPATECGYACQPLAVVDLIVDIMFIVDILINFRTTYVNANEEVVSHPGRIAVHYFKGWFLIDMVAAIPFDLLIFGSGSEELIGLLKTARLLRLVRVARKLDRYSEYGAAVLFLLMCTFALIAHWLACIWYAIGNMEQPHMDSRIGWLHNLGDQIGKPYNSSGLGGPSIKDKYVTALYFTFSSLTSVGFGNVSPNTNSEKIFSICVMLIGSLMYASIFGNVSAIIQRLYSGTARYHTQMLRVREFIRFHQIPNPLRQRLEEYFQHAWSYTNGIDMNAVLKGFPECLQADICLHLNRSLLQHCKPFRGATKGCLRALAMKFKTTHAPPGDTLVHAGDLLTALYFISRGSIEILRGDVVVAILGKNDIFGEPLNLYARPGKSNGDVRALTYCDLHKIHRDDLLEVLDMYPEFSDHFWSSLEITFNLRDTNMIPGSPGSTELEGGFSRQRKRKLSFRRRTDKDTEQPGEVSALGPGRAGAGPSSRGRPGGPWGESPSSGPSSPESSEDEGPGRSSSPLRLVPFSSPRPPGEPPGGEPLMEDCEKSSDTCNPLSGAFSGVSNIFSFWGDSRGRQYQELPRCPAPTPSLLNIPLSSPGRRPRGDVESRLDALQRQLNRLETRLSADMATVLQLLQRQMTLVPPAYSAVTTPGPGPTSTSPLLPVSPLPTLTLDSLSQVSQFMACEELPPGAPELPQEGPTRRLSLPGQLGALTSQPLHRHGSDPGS
# [2] = Luminescence Cell-Based Dose Retest to Confirm Inhibitors of Cancer Stem Cells. [Related pubchem assays (depositor defined):AID2717, AID2721]; format: functional; conditions: Homo sapiens
# [3] = cytotoxicity in HMLE control line with eGFP shRNA, dose response, counter-screen for HMLE_sh_ECad selective toxicity project, cell-based, HMLE_sh_eGFP, luminescence (AID 463074); format: functional, Homo sapiens;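 also: HMLE human mammary epithelial cells expressing control shRNA against eGFP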
# [4] = molecular target: Dual specificity protein kinase CLK1 (Homo sapiens, UniProt P49759); assay: CLK1 kinase inhibitors, off-target check, dose response, selectivity assay for Dyrk1A inhibitor project, biochemical, cherry-picked samples (AID 588811)
# [5] = molecular target: Dual specificity tyrosine-phosphorylation-regulated kinase 1A (Rattus norvegicus, UniProt Q63470); format: biochemical, Homo sapiens
# [6] = molecular target: Luciferin 4-monooxygenase (Photinus pyralis, UniProt P08659); assay: firefly luciferase enzyme inhibitors, dose response, biochemical, luminescence (AID 1891)
# Luciferin 4-monooxygenase, sequence (P08659 whole entry): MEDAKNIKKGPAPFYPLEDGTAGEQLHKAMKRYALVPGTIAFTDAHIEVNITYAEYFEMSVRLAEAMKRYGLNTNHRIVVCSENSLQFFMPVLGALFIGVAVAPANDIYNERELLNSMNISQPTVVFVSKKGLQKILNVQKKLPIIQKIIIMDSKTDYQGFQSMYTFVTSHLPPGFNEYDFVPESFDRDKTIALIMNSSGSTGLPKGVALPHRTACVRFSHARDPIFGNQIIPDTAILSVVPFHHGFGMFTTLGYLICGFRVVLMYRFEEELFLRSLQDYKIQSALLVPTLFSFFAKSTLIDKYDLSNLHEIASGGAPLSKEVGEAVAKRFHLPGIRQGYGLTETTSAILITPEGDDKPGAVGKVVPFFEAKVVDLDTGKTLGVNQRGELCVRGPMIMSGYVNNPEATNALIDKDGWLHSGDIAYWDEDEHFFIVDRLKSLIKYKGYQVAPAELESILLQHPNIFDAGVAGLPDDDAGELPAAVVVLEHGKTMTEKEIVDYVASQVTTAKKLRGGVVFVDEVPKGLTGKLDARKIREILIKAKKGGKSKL
# MDCK [7] = assay: MDCK cell cytotoxicity, dose response, cytotoxicity control (AID 540296); format: functional; conditions: Canis lupus familiaris
# Nonstructural protein 1 = Nonstructural protein 1 (Influenza A virus, UniProt Q194T2); format: functional, Influenza A virus (A/California/07/2009(H1N1))
# Nonstructural protein 1, sequence (Q194T2 whole entry): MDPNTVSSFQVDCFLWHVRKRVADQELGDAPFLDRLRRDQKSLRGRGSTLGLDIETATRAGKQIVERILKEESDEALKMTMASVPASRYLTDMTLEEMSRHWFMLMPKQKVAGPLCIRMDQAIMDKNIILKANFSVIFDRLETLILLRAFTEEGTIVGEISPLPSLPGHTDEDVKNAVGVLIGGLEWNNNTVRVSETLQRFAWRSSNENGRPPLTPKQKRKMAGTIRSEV
# [8] = Luminescence Cell-Based Dose Confirmation HTS to Identify Inhibitors of Platelet Dense Granule Release. [Related pubchem assays: 1663 (Primary HTS), 1678 (Summary of Project)]; format: functional
# MDCK [9] = assay: antiviral activity against H1N1 influenza, dose response, cell-based, strain KY180 (AID 540254); format: functional; conditions: Canis lupus familiaris
# [10] = molecular target: T1, Short transient receptor potential channel 4 (Mus musculus, UniProt Q9QUQ5); assay: mouse TRPC4 channel activators, dose response, cell-based, HEK293 TRPC4/mu-opioid, Fluo-4 calcium (AID 434937); format: functional
# T1 sequence (Q9QUQ5 whole entry): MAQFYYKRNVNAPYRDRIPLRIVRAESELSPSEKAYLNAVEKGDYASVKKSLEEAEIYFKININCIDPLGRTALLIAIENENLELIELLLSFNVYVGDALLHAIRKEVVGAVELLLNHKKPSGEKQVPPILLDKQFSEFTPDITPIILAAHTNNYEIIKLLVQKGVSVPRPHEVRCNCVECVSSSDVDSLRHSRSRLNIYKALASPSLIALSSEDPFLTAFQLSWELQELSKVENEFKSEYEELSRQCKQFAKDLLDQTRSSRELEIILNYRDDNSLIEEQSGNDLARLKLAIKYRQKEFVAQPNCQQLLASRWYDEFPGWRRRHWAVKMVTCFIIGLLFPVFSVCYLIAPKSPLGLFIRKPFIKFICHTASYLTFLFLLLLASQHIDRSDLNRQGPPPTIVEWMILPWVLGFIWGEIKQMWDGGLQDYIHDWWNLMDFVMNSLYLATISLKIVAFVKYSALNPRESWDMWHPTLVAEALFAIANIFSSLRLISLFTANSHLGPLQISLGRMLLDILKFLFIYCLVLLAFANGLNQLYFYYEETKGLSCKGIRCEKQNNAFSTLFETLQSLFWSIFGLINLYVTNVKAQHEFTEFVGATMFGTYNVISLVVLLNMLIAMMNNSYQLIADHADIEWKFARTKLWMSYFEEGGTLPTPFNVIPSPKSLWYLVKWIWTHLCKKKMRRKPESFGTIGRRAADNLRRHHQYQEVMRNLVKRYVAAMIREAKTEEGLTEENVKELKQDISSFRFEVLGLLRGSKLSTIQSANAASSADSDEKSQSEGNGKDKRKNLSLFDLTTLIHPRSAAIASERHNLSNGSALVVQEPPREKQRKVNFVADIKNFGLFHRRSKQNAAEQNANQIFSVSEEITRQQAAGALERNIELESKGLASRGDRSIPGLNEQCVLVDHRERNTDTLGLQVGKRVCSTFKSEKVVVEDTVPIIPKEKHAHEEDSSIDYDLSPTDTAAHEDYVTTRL
# [11] = molecular target: 5-hydroxytryptamine receptor 5A (Homo sapiens, UniProt P47898); assay: Counterscreen for agonists of OPRM1-OPRD1 heterodimerization: luminescence-based cell-based high throughput dose response assay to identify agonists of 5-hydroxytryptamine (serotonin) 5A receptor (HTR5A). [Related pubchem assays (depositor defined):AID504326, AID504355, AID504692, AID504904, AID504905]; format: functional
# 5-hydroxytryptamine receptor 5A, sequence (P47898 whole entry): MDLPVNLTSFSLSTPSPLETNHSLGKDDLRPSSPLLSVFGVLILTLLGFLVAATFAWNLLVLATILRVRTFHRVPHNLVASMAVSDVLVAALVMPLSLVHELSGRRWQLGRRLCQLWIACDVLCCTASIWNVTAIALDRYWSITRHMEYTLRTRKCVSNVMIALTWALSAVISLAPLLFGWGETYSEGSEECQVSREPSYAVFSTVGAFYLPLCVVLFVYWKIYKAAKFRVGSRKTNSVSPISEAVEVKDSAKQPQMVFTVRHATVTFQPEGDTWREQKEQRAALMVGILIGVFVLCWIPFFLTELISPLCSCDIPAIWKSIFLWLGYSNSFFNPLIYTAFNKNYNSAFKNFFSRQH
# [12] = molecular target: Delta-type opioid receptor (Homo sapiens, UniProt P41143); assay: Counterscreen for agonists of heterodimerization of the mu 1 (OPRM1) and delta 1 (OPRD1) opioid receptors: Luminescence-based cell-based high throughput dose response assay to identify agonists of OPRD1 homodimerization. [Related pubchem assays (depositor defined):AID504326, AID504355, AID504692, AID504904, AID504905]; format: functional
# Mu-type opioid receptor = Mu-type opioid receptor (Homo sapiens, UniProt P35372); assay: Counterscreen for agonists of heterodimerization of the mu 1 (OPRM1) and delta 1 (OPRD1) opioid receptors: Luminescence-based cell-based high throughput dose response assay to identify agonists of OPRM1 homodimerization.; format: functional;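 also: U2OS cells expressing OPRM1 and beta-arrestin as split beta-galactosidase partners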
# Mu-type opioid receptor, sequence (P35372 whole entry): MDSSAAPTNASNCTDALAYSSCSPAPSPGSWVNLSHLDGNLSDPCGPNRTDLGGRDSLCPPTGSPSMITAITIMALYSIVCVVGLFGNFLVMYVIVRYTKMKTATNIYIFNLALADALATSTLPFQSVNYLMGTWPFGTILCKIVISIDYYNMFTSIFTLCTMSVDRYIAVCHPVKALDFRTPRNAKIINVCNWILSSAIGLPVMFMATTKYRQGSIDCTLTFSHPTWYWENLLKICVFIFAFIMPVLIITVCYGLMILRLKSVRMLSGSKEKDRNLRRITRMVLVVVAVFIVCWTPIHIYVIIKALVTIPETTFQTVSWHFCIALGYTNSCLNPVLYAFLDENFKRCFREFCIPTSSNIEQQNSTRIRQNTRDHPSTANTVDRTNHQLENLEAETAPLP
# [13] = molecular target: T1, Short transient receptor potential channel 4; assay: mouse TRPC4 channel inhibitors, dose response, cell-based, HEK293 TRPC4/mu-opioid, Fluo-4 calcium (AID 434942); format: functional;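 also: potency of inhibitors blocking the TRPC4 calcium response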
# Cytochrome P450 1A2 = molecular target: T2, Cytochrome P450 1A2 (Homo sapiens, UniProt P05177);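 also: PubChem cytochrome P450 panel assay, CYP1A2 panel member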
# T2 sequence (P05177 whole entry): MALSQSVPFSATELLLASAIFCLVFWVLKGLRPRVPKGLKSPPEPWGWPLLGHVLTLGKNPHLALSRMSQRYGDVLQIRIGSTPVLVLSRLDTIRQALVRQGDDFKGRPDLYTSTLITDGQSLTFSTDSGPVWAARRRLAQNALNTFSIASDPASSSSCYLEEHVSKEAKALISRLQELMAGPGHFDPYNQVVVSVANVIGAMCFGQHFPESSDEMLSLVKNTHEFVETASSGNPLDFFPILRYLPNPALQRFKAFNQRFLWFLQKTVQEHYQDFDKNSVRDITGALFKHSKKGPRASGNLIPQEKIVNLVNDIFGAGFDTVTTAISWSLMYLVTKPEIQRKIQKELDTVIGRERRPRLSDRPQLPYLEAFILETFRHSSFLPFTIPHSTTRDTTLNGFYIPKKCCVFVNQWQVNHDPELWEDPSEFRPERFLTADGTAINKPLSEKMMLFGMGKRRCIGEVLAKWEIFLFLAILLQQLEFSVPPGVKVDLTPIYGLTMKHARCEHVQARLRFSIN
# [14] = molecular target: T1, Short transient receptor potential channel 4; assay: SAR Analysis for the identification of selective inhibits of the transient receptor potential cation channel C4 (TRPC4): Automated Electrophysiology. [Related pubchem assays (depositor defined):AID2256]; format: functional
# [15] = molecular target: FAD-linked sulfhydryl oxidase ALR (Homo sapiens, UniProt P55789); assay: inhibitors of human ALR sulfhydryl oxidase, dose response, biochemical, H2O2 detection, luminescence, cherry-pick (AID 493248)
# FAD-linked sulfhydryl oxidase ALR, sequence (P55789 whole entry): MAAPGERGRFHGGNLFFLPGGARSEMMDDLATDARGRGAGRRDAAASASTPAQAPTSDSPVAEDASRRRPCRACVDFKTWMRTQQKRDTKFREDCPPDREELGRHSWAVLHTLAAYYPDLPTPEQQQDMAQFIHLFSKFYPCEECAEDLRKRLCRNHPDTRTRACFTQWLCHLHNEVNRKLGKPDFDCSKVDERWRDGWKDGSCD
# Cytochrome P450 2C9 = Cytochrome P450 2C9 (Homo sapiens, UniProt P11712)
# [16] = molecular target: T3, Nuclear receptor subfamily 0 group B member 1 (Homo sapiens, UniProt P51843); assay: Luminescence-based cell-based high throughput dose response assay for inhibitors of the orphan nuclear receptor subfamily 0, group B, member 1 (DAX1; NR0B1). [Related pubchem assays (depositor defined):AID504766, AID504790]; format: functional
# T3 sequence (P51843 whole entry): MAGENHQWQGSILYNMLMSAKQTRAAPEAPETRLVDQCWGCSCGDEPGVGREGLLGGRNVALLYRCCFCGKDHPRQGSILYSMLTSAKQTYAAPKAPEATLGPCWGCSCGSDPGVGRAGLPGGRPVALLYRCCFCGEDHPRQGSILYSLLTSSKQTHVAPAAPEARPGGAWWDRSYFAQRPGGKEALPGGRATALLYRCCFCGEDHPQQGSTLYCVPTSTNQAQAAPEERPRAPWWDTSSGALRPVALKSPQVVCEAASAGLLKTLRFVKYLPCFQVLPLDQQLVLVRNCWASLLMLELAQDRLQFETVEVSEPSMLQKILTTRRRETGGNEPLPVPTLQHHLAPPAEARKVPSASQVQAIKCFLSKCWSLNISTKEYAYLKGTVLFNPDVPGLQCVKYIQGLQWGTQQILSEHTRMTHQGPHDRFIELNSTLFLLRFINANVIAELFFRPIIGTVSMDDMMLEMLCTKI
# HEK293 [17] = assay: cells; format: functional, cell-based; conditions: Homo sapiens
# A-375 = assay: A375 melanoma cell viability reduction, dose response, counter-screen for MITF modulator project, cherry-pick samples, set 2 (AID 540335); format: functional, cell-based; conditions: Homo sapiens
# [18] = molecular target: DNA dC->dU-editing enzyme APOBEC-3A (Homo sapiens, UniProt P31941); assay: Dose Response confirmation of small molecule APOBEC3A DNA Deaminase Inhibitors via a fluorescence-based single-stranded DNA deaminase assay. [Related pubchem assays (depositor defined):AID493011, AID493024]; format: functional
# DNA dC->dU-editing enzyme APOBEC-3A, sequence (P31941 whole entry): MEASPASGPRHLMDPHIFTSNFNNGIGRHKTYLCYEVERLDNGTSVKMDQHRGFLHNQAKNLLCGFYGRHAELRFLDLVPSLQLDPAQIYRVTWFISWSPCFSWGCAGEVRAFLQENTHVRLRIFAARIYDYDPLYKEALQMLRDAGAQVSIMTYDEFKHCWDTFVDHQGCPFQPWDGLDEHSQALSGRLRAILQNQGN
# [19] = molecular target: DNA dC->dU-editing enzyme APOBEC-3G (Homo sapiens, UniProt Q9HC16); format: functional;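 also: Dose-response counterscreen measuring inhibition of APOBEC3G DNA deaminase activity, run while confirming APOBEC3A inhibitors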
# DNA dC->dU-editing enzyme APOBEC-3G, sequence (Q9HC16 whole entry): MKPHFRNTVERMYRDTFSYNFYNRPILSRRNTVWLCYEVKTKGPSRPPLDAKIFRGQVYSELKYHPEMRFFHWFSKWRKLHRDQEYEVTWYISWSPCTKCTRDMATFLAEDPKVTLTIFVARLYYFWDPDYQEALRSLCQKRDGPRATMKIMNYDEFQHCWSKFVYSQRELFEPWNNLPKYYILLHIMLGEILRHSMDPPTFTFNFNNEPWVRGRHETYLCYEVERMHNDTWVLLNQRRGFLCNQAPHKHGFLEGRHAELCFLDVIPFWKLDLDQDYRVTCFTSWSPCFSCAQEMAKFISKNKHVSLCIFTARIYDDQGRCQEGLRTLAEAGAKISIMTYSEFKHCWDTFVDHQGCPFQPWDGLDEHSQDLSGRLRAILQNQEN
# [20] = molecular target: T4, Microphthalmia-associated transcription factor (Homo sapiens, UniProt O75030); assay: TRPM1 promoter luciferase signal decrease, dose response, MITF inhibitor project, cell-based, SK-MEL-5, cherry-picked, set 3 (AID 493073); format: functional
# T4 sequence (O75030 whole entry): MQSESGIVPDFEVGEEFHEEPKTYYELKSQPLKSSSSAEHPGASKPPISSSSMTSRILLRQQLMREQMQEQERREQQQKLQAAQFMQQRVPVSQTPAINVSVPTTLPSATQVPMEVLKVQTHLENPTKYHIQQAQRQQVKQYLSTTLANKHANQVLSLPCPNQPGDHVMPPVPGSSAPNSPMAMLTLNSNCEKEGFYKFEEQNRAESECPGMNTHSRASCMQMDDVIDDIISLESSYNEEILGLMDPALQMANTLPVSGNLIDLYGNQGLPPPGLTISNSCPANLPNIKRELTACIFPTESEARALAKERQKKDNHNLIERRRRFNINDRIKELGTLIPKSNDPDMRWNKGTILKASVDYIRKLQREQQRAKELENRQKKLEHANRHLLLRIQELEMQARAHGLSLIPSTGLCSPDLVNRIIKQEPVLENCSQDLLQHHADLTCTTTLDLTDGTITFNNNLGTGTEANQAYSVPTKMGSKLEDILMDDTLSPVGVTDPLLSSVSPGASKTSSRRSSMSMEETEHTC
# Candida albicans = assay: growth inhibition of resistant C. albicans, dose response, CaCi-8 strain, fluconazole, dry powder, set 4 (AID 488950); format: functional, organism-based
# HEK293 [21] = assay: cytotoxicity in HEK293T NF-kB-Luc cells, SAR follow-up, cytotoxicity control for NF-kB activator project, cell-based, resazurin fluorescence (AID 493251); format: functional; conditions: Homo sapiens
# HEK293 [22] = assay: SAR Analysis of small molecule inhibitors of B-cell specific antigen receptor-induced NF-kB activation in a HEK-293T cell line using a luminescence assay - Set 2. [Related pubchem assays (depositor defined):AID435022, AID435025, AID489021]; format: functional, cell-based; conditions: Homo sapiens
# Jurkat = assay: SAR Analysis of small molecule inhibitors of […] specific antigen receptor-induced NF-kB activation in a Jurkat cell line using a luminescence assay - Set 3. [Related pubchem assays (depositor defined):AID435022, AID435025, AID465]; format: functional, cell-based; conditions: Homo sapiens
# CAAX prenyl protease 2 = CAAX prenyl protease 2 (Homo sapiens, UniProt Q9Y256); assay: human Rce1 protease inhibitors, dose response, biochemical, yeast membranes, quenched-peptide fluorescence, cherry-pick (AID 588849)
# Genome polyprotein = Genome polyprotein (dengue virus type 2, UniProt P29990); assay: Dengue-2 NS5 methyltransferase inhibitors, primary screen, biochemical, confirmation dose response (AID 588689); format: functional
# Genome polyprotein, sequence (P29990 2492-3391 limits assumed): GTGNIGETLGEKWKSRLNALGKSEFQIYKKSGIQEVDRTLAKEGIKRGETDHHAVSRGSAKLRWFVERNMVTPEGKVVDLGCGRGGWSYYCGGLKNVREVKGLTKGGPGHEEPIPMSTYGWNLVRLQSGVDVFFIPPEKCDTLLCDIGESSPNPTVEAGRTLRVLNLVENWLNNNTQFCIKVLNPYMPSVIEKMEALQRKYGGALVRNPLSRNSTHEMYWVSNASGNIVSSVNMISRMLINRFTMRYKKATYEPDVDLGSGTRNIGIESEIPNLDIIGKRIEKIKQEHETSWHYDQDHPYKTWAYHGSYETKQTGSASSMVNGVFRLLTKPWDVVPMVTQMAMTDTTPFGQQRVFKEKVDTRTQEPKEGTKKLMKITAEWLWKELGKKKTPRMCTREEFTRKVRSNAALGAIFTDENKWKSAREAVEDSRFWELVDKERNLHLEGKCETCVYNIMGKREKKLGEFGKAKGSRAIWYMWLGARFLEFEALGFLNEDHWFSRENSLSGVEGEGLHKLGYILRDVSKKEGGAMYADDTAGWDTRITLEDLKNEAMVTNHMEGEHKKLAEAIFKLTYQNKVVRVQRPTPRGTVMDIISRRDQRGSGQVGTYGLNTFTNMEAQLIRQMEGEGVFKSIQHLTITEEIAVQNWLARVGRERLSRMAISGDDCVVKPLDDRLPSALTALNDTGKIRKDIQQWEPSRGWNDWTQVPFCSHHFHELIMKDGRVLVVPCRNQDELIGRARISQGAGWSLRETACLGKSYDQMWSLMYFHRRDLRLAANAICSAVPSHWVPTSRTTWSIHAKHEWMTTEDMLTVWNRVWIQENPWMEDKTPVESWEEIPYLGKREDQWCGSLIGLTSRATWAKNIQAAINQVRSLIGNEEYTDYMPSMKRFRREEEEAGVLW
# Vero = Vero cell cytotoxicity, cytotoxicity control for flavivirus capping enzyme inhibitors (AID 588742); format: functional; conditions: Chlorocebus sabaeus
# Cytochrome P450 3A4, sequence (P08684 whole entry): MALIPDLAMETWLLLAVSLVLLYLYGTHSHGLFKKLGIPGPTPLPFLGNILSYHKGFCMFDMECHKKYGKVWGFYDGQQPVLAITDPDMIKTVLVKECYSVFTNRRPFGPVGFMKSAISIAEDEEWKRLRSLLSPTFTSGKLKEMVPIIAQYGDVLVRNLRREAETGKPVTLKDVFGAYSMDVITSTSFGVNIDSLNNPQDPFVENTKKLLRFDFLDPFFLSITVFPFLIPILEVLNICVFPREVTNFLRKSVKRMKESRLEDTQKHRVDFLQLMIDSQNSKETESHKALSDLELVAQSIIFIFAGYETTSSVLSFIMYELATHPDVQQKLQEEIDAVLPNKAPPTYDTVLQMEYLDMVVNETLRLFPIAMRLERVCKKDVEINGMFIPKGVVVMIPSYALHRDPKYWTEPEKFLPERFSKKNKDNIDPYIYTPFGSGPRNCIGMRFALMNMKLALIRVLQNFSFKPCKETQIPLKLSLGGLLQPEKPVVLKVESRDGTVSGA
compound,measurement,setting,value
CCn1c(=O)c2[nH]c(-c3ccccc3)nc2n(CC)c1=O,AC50,Cytochrome P450 3A4,3.98 µM (inconclusive)
same,AC50,[1],35.5 µM (inconclusive)
O=C1c2ccccc2C(=O)N1CC#CCN1CCN(C(c2ccccc2)c2ccccc2)CC1,AC50,[2],2.06 µM (active)
same,AC50,[3],25.2 µM (active)
COc1ccc(C(=O)c2sc(Nc3ccccc3F)nc2N)cc1,AC50,[4],3.41 µM (active)
same,AC50,[5],1.63 µM (active)
COc1ccc(N2CCN(CCCN)CC2)cc1,EC50,[6],> 112 µM (not active)
same,CC50,MDCK [7],> 40 µM (active)
same,IC50,Nonstructural protein 1,39.8 µM (active)
same,EC50,[8],> 112 µM (not active)
same,IC50,MDCK [9],23 µM (active)
CC(=O)Nc1ccc(CN2CCCC(C(=O)c3cccc(C(F)(F)F)c3)C2)cc1 (stereo not drawn),EC50,[10],1.68 µM (active)
same,EC50,[11],> 92.5 µM (inactive)
same,EC50,[12],39.4 µM (inactive)
same,EC50,Mu-type opioid receptor,> 92.5 µM (inactive)
Cn1c(-c2ccc(F)cc2)cnc1NCc1ccc(F)cc1,EC50,[13],0.749 µM (active)
same,AC50,Cytochrome P450 1A2,8.91 µM (inconclusive)
same,IC50,[14],4.28 µM (active)
same,AC50,[15],4.7 µM (active)
same,AC50,Cytochrome P450 2C9,20 µM (inconclusive)
CC(C=NNc1ccc([N+](=O)[O-])cn1)=Cc1ccccc1,IC50,[16],> 67.5 µM (inactive)
same,IC50,HEK293 [17],> 67.5 µM (inactive)
CCN1CCN(c2ccc(S(=O)(=O)N3CCOCC3)cc2NC(=O)/C=C/c2ccc([N+](=O)[O-])cc2)CC1,AC50,A-375,28.6 µM (active)
same,IC50,[18],8.67 µM (active)
same,IC50,[19],7.56 µM (active)
same,AC50,[20],8.13 µM (active)
O=C(c1ccc(Cl)cc1)N1CCN(c2cccc(C(F)(F)F)n2)CC1,AC50,Candida albicans,172 µM (active)
CCOc1ccc(-c2nc(CSCC(=O)NC(C)C)c(C)o2)cc1,IC50,HEK293 [21],> 80 µM (inactive)
same,IC50,HEK293 [22],61.7 µM (inactive)
same,IC50,Jurkat,> 80 µM (inactive)
Cc1c(CCC(=O)O)c(=O)oc2cc(OCc3cccc(F)c3)ccc12,AC50,CAAX prenyl protease 2,12.1 µM (active)
O=S(=O)(N=C1C=CC(=NS(=O)(=O)c2ccccc2)c2ccccc21)c1ccccc1,IC50,Genome polyprotein,19.1 µM (active)
same,CC50,Vero,34.1 µM (active)
